Consider 14 molecules from patent US20100113465A1, “7-AZASPIRO[3.5]NONANE-7-CARBOXAMIDE COMPOUNDS” (Pfizer Inc., priority 2008, published 2010).

For experiment [1], the target named is T1, human FAAH (Homo sapiens, UniProt O00519).
T1 construct: made in house; host or cells: E. coli
T1 sequence (O00519 1-579): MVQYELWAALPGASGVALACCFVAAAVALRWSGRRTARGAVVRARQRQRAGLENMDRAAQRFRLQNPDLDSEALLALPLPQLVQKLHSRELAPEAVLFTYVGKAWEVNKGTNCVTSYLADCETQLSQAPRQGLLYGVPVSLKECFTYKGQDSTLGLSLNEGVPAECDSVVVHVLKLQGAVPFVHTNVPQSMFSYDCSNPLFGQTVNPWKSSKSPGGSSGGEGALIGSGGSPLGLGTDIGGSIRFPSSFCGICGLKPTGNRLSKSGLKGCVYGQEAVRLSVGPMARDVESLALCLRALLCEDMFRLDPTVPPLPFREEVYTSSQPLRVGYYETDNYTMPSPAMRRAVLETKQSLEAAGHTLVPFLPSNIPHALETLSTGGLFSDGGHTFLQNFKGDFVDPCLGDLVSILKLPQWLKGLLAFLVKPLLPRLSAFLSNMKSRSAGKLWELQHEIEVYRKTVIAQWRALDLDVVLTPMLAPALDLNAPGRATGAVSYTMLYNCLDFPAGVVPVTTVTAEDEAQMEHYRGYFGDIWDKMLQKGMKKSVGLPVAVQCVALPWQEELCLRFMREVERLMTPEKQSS
Briefly: FAAH assay, human FAAH enzyme inhibition (kinact/Ki). Conditions: oleamide substrate 50 μM, 30° C., read-out: hFAAH kinact/Ki. In kind it is biochemical. The protocol:
(§1) The FAAH assay was carried out in 384-well clear polystyrene plates (Evergreen Scientific) in a total volume of 50 μl per well in a manner similar to that described by Mileni et al., Proc. Nat. Acad. Sci. 2008, 105, 12820-12824. All percents are by volume. Serial dilutions of compound were initially prepared in 100% DMSO, and then diluted two-fold into HPLC-grade H2O to give 50% DMSO. To each well, was placed the reaction mixture (40 μl) containing 1-4 nM FAAH, 50 mM NaPi, pH 7.4, 3 mM α-ketoglutarate, 0.15 mM NADH, 7.5 U/ml glutamate dehydrogenase, 2 mM ADP, 1 mM EDTA, and 0.1% Triton X-100 (The concentration shown for each component is the final concentration in the assay). To this mixture, was added 5 μl of a compound of Examples 1 to 56 at various concentrations in 50% DMSO (or 5 μl 50% DMSO for controls). This was immediately followed by the addition of 5 μl oleamide (500 μM) dissolved in 75% EtOH/25% DMSO and the reaction mixture was mixed for 1.5 min. The final concentrations of DMSO and EtOH in the assay were each 7.5%. The reactions were incubated at 30° C. and the absorbance at 340 nm was collected over a period of 90 min with readings taken in 30-second intervals using SpectraMax Plus^384 Microplate Spectrophotometer (Molecular Devices, Sunnyvale, Calif.). The human FAAH and rat FAAH used in the assay was prepared as described in the patent application WO 2006/067613 using wild-type E. coli cells transformed in St. Louis, Mo., U.S.A. The purity of the enzyme was greater than 98% based on an analysis by SDS-polyacrylamide gel electrophoresis followed by Coomassie Blue staining.
(§2) Reaction progress curves were corrected for the non-enzymatic oxidation of NADH by subtraction of absorbancies at each time point obtained from control reactions containing no FAAH enzyme. The loss of enzyme activity as a function of time is well-described by the following mathematical equation (1) for a mono-exponential decay: […]
(§3) where At represents the absorbance at time t, A0 represents the absorbance at time zero, and C represents a constant. Observed rates of enzyme inactivation (kobs) were determined from the non-linear reaction progress curves by fitting the corrected absorbancies to an equation for a mono-exponential decay using the third-party Microsoft Excel plug-in, XLfit (IDBS Limited). Secondary plots of kobs vs. inhibitor concentration were prepared from kobs values obtained from progress curves. Second-order rates for enzyme inactivation, expressed as kinact/Ki (M^−1s^−1), were calculated from the slopes from linear regression analysis of the secondary plot of kobs vs. inhibitor concentration as defined in following equation (2), where [I]<<Ki:
(§4) The concentration of substrate in the assay was equal to the Km for oleamide of 50 μM. Therefore, reported kinact/Ki values are obtained by multiplying resulting slopes by a factor of two (i.e. slope=kinact/(Ki*2)).

Experiment [2] has as its system Male Sprague-Dawley Rats. Kind of experiment: In vivo Complete Freund's Adjuvant (CFA) efficacy assay. Also on record: species or system rat; key: (+) indicates the test compound was determined to be efficacious at 3 mpk, oral dosing; (−) indicates the test compound was determined to not be efficacious at 3 mpk, oral dosing. The settings on record: 3 mpk, oral dosing; inhibition of allodynia (PWT) four hours postdose vs vehicle, p<0.05. The protocol: For additional information on the CFA efficacy assay, see Jayamanne et al., Brit. J. Pharmacol. 2006, 147, 281-288. Experiments were performed on adult Male Sprague-Dawley Rats (200 g-250 g). Inflammation was induced in the left hindpaw of the rat by an intra-plantar injection of 150 uL Complete Freund's Adjuvant (CFA) (SIGMA F5881). The CFA injection immediately induces local inflammation, paw swelling, and pain that persists for at least two weeks post-injection. Baseline paw withdrawal threshold (PWT) was measured to determine the percent inhibition of allodynia using a set of Von Frey Hairs on day 4 post injection as illustrated by the Dixon Up and Down Method (W. J. Dixon, Ann. Rev. Pharmacol. Toxicol. 1980, 20:441-462). […] Test compound was administered at a concentration of 3 mg/kg (mpk) orally with the dosing vehicle 5% N,N′-Dimethylacetamide (SIGMA D137510) and 95% (40% 2-hydroxypropyl-beta-cyclodextrin in water) (SIGMA H107). Following Dose administration PWT threshold was evaluated again at four hours postdose. The Sprague-Dawley rats used in this assay were purchased from Harlan, 8520 Allison Pointe Blvd., Indianapolis, Ind., 46250, U.S.A. Sprague-Dawley rats are an outbred breed of albino rats first produced by the Sprague Dawley farms in Madison, Wis., U.S.A.
Percent Inhibition of Allodynia was determined by the formula: […]
ΔPWT measurements were averaged for each treatment group and statistical comparisons between groups were made using ANOVA and Dunnett's two-tailed test. […]

For experiment [3], the target named is T2, rat FAAH (Rattus norvegicus, UniProt P97612).
T2 construct: made in house; host or cells: E. coli
T2 sequence (P97612 1-579): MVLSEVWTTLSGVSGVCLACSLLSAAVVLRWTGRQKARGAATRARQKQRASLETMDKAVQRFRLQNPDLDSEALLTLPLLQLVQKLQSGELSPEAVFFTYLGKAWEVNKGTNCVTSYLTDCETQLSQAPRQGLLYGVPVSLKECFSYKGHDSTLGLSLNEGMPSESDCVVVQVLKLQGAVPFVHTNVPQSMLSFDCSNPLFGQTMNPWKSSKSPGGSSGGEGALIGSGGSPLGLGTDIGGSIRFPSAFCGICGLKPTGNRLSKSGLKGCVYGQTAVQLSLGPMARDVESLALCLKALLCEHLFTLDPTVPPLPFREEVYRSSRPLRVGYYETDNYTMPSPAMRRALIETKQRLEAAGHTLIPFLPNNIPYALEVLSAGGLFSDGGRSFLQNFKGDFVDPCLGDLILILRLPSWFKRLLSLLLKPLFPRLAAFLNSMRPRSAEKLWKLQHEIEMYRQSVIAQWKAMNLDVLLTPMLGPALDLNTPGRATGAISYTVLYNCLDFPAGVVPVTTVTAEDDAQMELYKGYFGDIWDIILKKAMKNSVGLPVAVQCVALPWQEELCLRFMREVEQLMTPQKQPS
Briefly: FAAH assay, rat FAAH enzyme inhibition (kinact/Ki). The settings on record: oleamide substrate 50 μM, 30° C., read-out: rFAAH kinact/Ki. The format is biochemical. The protocol: as §1, §2, §3, §4

Regarding `Cc1noc(NC(=O)N2CCC3(CC2)CC(c2cccc(OC(F)(F)F)c2)C3)c1C` [Example 4, N-(3,4-dimethylisoxazol-5-yl)-2-[3-(trifluoromethoxy)phenyl]-7-azaspiro[3.5]nonane-7-carboxamide], the kinact/KI was found to be 2830 M⁻¹ s⁻¹ in experiment [1] and 3860 M⁻¹ s⁻¹ in experiment [3]. Moreover, the “CFA Efficacy” value in experiment [2] is given as “(+)”.
Consider `Cc1cc(C2CC3(CCN(C(=O)Nc4onc(C)c4C)CC3)C2)ccc1F` [Example 12, N-(3,4-dimethylisoxazol-5-yl)-2-(4-fluoro-3-methylphenyl)-7-azaspiro[3.5]nonane-7-carboxamide], for which the kinact/KI in experiment [1] came to 3950 M⁻¹ s⁻¹; in experiment [3], 2990 M⁻¹ s⁻¹. Further, the “CFA Efficacy” value in experiment [2] is given as “(+)”.
For `Cc1noc(NC(=O)N2CCC3(CC2)CC(c2cccc(Cl)c2)C3)c1C` [Example 13, 2-(3-chlorophenyl)-N-(3,4-dimethylisoxazol-5-yl)-7-azaspiro[3.5]nonane-7-carboxamide], in that order: 3940 M⁻¹ s⁻¹, 3560 M⁻¹ s⁻¹ and “(+)”.
Regarding `Cc1noc(NC(=O)N2CCC3(CC2)CC(c2ccc(F)c(Cl)c2)C3)c1C` [Example 14, 2-(3-chloro-4-fluorophenyl)-N-(3,4-dimethylisoxazol-5-yl)-7-azaspiro[3.5]nonane-7-carboxamide], the kinact/KI was found to be 4190 M⁻¹ s⁻¹ in experiment [1] and 5820 M⁻¹ s⁻¹ in experiment [3]. Moreover, the “CFA Efficacy” value in experiment [2] is reported as “(+)”.
On the same counts, the results for `Cc1noc(NC(=O)N2CCC3(CC2)CC(c2noc(-c4ccc(OC(F)(F)F)cc4)n2)C3)c1C` [Example 15, N-(3,4-dimethylisoxazol-5-yl)-2-{5-[4-(trifluoromethoxy)phenyl]-1,2,4-oxadiazol-3-yl}-7-azaspiro[3.5]nonane-7-carboxamide] are 3460 M⁻¹ s⁻¹, 1730 M⁻¹ s⁻¹ and “(+)”.
As for `Cc1cc(F)cc(C2CC3(CCN(C(=O)Nc4onc(C)c4C)CC3)C2)c1` [Example 18, N-(3,4-dimethylisoxazol-5-yl)-2-(3-fluoro-5-methylphenyl)-7-azaspiro[3.5]nonane-7-carboxamide], the kinact/KI in experiment [1] turned out to be 2640 M⁻¹ s⁻¹; in experiment [3] it was 1560 M⁻¹ s⁻¹. For the same molecule, the “CFA Efficacy” value in experiment [2] is on record as “(−)”.
Regarding `Cc1noc(NC(=O)N2CCC3(CC2)CC(c2cccc(F)c2F)C3)c1C` [Example 19, 2-(2,3-difluorophenyl)-N-(3,4-dimethylisoxazol-5-yl)-7-azaspiro[3.5]nonane-7-carboxamide], the kinact/KI in experiment [1] was determined as 2350 M⁻¹ s⁻¹; in experiment [3], 1370 M⁻¹ s⁻¹. The “CFA Efficacy” value in experiment [2] is reported as “(+)”.
Take `Cc1noc(NC(=O)N2CCC3(CC2)CC(c2ccc(Cl)c(Cl)c2)C3)c1C` [Example 20, 2-(3,4-dichlorophenyl)-N-(3,4-dimethylisoxazol-5-yl)-7-azaspiro[3.5]nonane-7-carboxamide]: the kinact/KI turned out to be 4550 M⁻¹ s⁻¹ in experiment [1] and 3470 M⁻¹ s⁻¹ in experiment [3]. Besides, the “CFA Efficacy” value in experiment [2] is on record as “(+)”.
For `Cc1noc(NC(=O)N2CCC3(CC2)CC(c2cc(Cl)ccc2F)C3)c1C` [Example 21, 2-(5-chloro-2-fluorophenyl)-N-(3,4-dimethylisoxazol-5-yl)-7-azaspiro[3.5]nonane-7-carboxamide], in that order: 2700 M⁻¹ s⁻¹, 1510 M⁻¹ s⁻¹ and “(+)”.
For the molecule `CCc1cccc(C2CC3(CCN(C(=O)Nc4onc(C)c4C)CC3)C2)c1` [Example 22, N-(3,4-dimethylisoxazol-5-yl)-2-(3-ethylphenyl)-7-azaspiro[3.5]nonane-7-carboxamide], the results for the kinact/KI in experiment [1] and in experiment [3] were 5670 M⁻¹ s⁻¹ and 1340 M⁻¹ s⁻¹, respectively. Moreover, the “CFA Efficacy” value in experiment [2] is given as “(−)”.
As for `Cc1noc(NC(=O)N2CCC3(CC2)CC(F)(c2cccc(OC(F)(F)F)c2)C3)c1C` [Example 23, N-(3,4-dimethylisoxazol-5-yl)-2-fluoro-2-[3-(trifluoromethoxy)phenyl]-7-azaspiro[3.5]nonane-7-carboxamide], the kinact/KI stood at 2820 M⁻¹ s⁻¹ in experiment [1] and 1710 M⁻¹ s⁻¹ in experiment [3]. In addition, in experiment [2], the “CFA Efficacy” value is “(+)”.
Regarding `CCn1nnnc1NC(=O)N1CCC2(CC1)CC(c1cccc(OC(F)(F)F)c1)C2` [Example 52, N-(1-ethyl-1H-tetrazol-5-yl)-2-[3-(trifluoromethoxy)phenyl]-7-azaspiro[3.5]nonane-7-carboxamide], the kinact/KI in experiment [1] came to 6940 M⁻¹ s⁻¹; in experiment [3], 3420 M⁻¹ s⁻¹.
For `Cn1nnnc1NC(=O)N1CCC2(CC1)CC(c1cccc3c1OC(F)(F)O3)C2` [Example 55, 2-(2,2-difluoro-1,3-benzodioxol-4-yl)-N-(1-methyl-1H-tetrazol-5-yl)-7-azaspiro[3.5]nonane-7-carboxamide], the kinact/KI in experiment [1] came to 10200 M⁻¹ s⁻¹; in experiment [3], 2040 M⁻¹ s⁻¹.
For `Cn1nnnc1NC(=O)N1CCC2(CC1)CC(c1cccc(F)c1F)C2` [Example 56, 2-(2,3-difluorophenyl)-N-(1-methyl-1H-tetrazol-5-yl)-7-azaspiro[3.5]nonane-7-carboxamide], in that order: 10300 M⁻¹ s⁻¹ and 1940 M⁻¹ s⁻¹.
